The source of these data is ChEMBL document CHEMBL5465560, “Selectivity Literature for EUbOPEN Chemogenomic Library” (2024).

SMILES strings stand for the structures.

Assay [1] deals with T1, Myosin-IIIb (Homo sapiens) (UniProt Q8WXR4).
T1 sequence (whole entry): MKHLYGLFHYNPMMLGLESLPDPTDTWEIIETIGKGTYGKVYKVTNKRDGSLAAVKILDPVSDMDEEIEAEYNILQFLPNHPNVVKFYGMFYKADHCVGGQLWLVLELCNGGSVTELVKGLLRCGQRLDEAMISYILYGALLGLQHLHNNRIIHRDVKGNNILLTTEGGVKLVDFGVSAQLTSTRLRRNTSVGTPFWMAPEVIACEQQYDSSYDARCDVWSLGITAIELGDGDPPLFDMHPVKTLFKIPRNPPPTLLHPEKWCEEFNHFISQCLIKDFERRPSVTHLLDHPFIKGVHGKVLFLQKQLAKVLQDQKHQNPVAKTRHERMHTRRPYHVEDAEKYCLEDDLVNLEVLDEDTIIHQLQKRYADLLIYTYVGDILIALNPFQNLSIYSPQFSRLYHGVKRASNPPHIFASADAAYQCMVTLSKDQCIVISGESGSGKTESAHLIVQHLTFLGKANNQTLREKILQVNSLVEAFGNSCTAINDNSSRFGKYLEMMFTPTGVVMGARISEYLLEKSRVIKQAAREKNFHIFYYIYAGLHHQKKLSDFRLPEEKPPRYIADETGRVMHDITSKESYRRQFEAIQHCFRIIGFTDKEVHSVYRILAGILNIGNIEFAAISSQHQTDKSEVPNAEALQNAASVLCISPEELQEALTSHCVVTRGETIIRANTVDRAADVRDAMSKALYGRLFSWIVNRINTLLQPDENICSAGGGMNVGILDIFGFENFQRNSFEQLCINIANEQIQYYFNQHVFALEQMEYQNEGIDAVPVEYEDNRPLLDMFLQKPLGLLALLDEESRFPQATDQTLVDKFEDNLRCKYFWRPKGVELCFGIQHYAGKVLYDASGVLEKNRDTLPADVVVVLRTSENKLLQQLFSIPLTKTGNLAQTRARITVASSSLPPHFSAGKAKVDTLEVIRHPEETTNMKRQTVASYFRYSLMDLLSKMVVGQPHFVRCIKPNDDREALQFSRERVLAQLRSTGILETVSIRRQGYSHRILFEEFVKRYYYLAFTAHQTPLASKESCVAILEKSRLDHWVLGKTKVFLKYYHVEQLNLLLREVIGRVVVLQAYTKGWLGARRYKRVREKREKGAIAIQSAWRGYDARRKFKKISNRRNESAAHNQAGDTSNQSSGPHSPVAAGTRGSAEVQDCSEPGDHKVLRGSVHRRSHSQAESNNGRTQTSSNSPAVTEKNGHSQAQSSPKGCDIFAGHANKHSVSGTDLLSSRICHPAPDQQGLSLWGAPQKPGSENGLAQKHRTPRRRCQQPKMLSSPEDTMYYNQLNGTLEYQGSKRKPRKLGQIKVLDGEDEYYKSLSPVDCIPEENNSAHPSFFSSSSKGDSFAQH
The experiment in a line: Selectivity interaction (LanthaScreen Eu Kinase Binding Assay) EUB0001632a MYO3B. Particulars: at 10 µM.

In assay [2] the target is T2, Tyrosine-protein kinase Tec (Homo sapiens) (UniProt P42680).
T2 sequence (whole entry): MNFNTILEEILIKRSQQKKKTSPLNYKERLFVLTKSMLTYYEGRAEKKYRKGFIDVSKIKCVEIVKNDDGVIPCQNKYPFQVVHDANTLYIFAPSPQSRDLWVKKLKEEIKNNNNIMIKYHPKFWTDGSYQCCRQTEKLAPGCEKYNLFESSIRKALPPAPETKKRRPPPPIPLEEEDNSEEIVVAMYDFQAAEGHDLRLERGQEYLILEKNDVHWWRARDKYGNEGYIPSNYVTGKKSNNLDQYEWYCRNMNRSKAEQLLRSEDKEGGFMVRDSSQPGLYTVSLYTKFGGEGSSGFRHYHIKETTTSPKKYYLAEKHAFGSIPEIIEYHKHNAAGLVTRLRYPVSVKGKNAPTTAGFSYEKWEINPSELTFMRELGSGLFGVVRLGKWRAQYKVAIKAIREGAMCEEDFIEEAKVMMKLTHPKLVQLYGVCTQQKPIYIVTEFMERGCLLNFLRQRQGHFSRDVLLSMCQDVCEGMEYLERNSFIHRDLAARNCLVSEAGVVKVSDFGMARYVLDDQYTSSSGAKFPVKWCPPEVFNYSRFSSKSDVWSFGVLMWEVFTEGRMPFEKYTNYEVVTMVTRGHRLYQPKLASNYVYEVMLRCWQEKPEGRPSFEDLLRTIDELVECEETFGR
Kind of assay: Selectivity interaction (KinomeScan (DiscoverX)) EUB0000229b TEC. Particulars: at 10 µM.

The target in assay [3] is Tyrosine-protein kinase HCK (Homo sapiens) (UniProt P08631). Kind of assay: Selectivity interaction (KinomeScan (DiscoverX)) EUB0000655a HCK. Particulars: at 10 µM.
Assay [4] deals with BDNF/NT-3 growth factors receptor (Homo sapiens) (UniProt Q16620). The experiment in a line: Selectivity interaction (KinomeScan (DiscoverX)) EUB0001049a NTRK2. Particulars: at 1 µM.
Assay [5] addresses T3, Mitogen-activated protein kinase 12 (Homo sapiens) (UniProt P53778).
T3 sequence (whole entry): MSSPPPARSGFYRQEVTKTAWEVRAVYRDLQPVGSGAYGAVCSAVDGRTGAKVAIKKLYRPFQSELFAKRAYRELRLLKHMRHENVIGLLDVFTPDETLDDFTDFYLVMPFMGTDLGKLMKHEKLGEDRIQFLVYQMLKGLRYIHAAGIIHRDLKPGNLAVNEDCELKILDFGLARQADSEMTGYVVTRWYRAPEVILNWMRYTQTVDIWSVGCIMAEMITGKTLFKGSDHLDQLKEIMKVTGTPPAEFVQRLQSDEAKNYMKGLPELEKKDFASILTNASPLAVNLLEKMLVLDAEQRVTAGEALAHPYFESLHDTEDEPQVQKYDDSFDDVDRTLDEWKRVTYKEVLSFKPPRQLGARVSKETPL
The experiment in a line: Selectivity interaction (KinomeScan (DiscoverX)) EUB0000695a MAPK12. Particulars: at 100 nM.

The subject of assay [6] is Phosphatidylinositol 4,5-bisphosphate 3-kinase catalytic subunit alpha isoform (Homo sapiens), P42336 [E545A]. Particulars: at 10 µM.

Chain of Tyrosine-protein kinase HCK (Homo sapiens) (P08631 2-526 limits assumed): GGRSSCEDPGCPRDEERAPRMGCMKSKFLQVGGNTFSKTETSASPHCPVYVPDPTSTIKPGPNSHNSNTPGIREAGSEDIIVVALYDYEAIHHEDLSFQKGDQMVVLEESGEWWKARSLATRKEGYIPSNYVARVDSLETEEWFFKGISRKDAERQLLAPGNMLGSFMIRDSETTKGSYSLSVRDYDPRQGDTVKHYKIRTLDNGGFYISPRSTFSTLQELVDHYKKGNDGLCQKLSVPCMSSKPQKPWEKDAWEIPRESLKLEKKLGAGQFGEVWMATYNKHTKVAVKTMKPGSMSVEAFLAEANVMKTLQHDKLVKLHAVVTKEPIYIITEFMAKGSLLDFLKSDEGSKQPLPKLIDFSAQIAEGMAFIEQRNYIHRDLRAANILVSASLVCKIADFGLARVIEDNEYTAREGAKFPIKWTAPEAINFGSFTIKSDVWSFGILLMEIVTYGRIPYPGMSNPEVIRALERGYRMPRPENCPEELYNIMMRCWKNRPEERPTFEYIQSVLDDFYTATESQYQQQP
Chain of BDNF/NT-3 growth factors receptor (Homo sapiens) (Q16620 32-822 limits assumed): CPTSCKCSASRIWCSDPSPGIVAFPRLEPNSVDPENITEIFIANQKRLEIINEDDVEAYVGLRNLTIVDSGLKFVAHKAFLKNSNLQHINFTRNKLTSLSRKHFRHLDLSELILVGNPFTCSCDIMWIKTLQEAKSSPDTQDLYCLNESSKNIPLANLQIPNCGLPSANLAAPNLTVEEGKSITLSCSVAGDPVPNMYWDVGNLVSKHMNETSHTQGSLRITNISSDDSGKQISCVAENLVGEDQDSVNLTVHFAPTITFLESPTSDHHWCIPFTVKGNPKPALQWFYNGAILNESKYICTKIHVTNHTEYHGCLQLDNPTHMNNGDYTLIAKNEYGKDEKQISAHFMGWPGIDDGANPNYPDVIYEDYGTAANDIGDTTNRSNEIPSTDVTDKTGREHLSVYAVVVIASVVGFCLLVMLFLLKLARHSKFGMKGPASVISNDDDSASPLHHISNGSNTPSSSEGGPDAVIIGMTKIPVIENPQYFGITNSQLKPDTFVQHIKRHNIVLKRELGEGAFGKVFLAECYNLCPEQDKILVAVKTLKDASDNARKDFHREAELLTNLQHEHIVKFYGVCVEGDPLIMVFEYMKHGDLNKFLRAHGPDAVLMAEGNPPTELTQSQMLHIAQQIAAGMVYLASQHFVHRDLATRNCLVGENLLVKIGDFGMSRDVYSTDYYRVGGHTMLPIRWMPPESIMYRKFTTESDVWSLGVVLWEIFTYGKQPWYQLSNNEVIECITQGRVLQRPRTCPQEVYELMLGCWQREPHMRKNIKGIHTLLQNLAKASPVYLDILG
Chain of Phosphatidylinositol 4,5-bisphosphate 3-kinase catalytic subunit alpha isoform (Homo sapiens), P42336 [E545A] (P42336 whole entry E545A, canonical isoform): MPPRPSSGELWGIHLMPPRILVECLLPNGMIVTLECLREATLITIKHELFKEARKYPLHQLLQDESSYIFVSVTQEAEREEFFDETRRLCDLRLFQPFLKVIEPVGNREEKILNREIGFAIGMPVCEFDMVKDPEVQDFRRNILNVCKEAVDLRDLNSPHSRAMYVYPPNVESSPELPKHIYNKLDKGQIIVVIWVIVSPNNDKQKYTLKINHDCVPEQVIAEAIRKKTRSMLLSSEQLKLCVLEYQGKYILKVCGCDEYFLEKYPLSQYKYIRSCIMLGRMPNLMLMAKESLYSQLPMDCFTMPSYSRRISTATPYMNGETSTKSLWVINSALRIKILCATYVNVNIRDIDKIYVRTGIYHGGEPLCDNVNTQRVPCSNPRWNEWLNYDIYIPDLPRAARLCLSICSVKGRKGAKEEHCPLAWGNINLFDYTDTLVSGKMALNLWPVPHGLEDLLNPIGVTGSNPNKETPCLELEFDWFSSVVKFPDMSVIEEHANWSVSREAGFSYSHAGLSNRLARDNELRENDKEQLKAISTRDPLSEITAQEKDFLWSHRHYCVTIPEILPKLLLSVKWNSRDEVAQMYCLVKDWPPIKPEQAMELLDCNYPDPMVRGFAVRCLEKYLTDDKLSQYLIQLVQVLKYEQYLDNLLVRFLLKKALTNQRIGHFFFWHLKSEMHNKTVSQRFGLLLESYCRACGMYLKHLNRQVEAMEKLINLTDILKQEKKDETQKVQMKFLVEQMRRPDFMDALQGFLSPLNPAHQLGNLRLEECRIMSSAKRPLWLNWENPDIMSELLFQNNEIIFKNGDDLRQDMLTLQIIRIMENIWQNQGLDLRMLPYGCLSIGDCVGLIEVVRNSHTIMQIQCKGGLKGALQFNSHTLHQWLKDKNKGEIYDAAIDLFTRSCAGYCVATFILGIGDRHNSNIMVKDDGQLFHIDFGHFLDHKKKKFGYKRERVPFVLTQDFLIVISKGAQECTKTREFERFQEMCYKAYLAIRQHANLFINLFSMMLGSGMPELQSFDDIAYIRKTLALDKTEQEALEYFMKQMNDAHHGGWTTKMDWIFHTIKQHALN

`Cn1cc(-n2cnc3c(NCc4nc5cc(Cl)c(Cl)cc5[nH]4)nc(N4CCOCC4)nc32)cn1`: the % of inhibition in assay [1] is -8.99%. In assay [2], `COc1cc(N(C)c2ccnc3ccc(C(F)(F)F)cc23)cc(OC)c1OC` displayed a % binding of 98%. For the molecule `CN(C)CCOc1ccc(-c2nc(-c3ccncc3)c(-c3ccc4c(c3)CC/C4=N\O)[nH]2)cc1`, the % of control in assay [3] is 84%. `COc1cc(Nc2nc(C)cc(-c3cnn4nc(OC)ccc34)n2)cc(C(F)(F)F)c1` registered a % of control in assay [4] of 96%. Regarding `Cc1cc(F)c(C(=O)Nc2cccc(-c3nncn3C(C)C)n2)cc1-n1cnc(C2CC2)c1`, the % of control in assay [5] came to 100%. In assay [6], `COCC(=O)NC/C=C/c1ccc2ncnc(Nc3ccc(Oc4ccc(C)nc4)c(C)c3)c2c1` [CP-724714] showed a % of control of 33%.
